According to patent US9518064B2, “Imidazothiadiazole and imidazopyridazine derivatives as protease activated receptor 4 (PAR4) inhibitors for treating platelet aggregation” (BRISTOL-MYERS SQUIBB COMPANY, priority 2012, dated 2016):
Where no end group is shown, it is not given here.

Key:
PAR4 [1] = molecular target: T1, PAR4 (Homo sapiens (Human), UniProt Q96RI0); test: FLIPR assay in PAR4-expressing HEK293 cells (calcium mobilization); assay type: cell-based; details: PAR4 antagonist activity, FLIPR assay as described in Example A
PAR4 [2] = molecular target: T1, PAR4; test: Gamma thrombin induced platelet aggregation assay (PRP assay); assay type: cell-based; details: γ-thrombin induced platelet aggregation in PRP
human washed platelets = test: Alpha-thrombin induced platelet aggregation assay in human washed platelets; assay type: cell-based; details: 0.1 h, read-out: IC50 for the inhibition of platelet aggregation
Experimental: Example D is an alpha-thrombin-induced platelet aggregation assay. Alpha-thrombin activates both PAR1 and PAR4. The ability of a selective PAR4 antagonist of the present invention, Example 13, to inhibit platelet aggregation was measured using a standard optical aggregometer.
Human blood was collected in ACD (85 mM tri-sodium citrate, 78 mM citric acid, 110 mM D-glucose, pH 4.4) at a ratio of 1.4 ml per 10 ml blood. PRP was isolated by centrifugation at 170 g for 14 minutes and platelets were further pelleted by centrifugation at 1300 g for 6 minutes. Platelets were washed once with 10 ml ACD containing 1 mg/ml bovine serum albumin. Platelets were resuspended at ˜2.5×10^8/ml in Tyrode's Buffer (137 mM NaCl, 2 mM KCl, 1.0 mM MgCl2, 1 mM CaCl2, 5 mM glucose, 20 mM HEPES pH 7.4).
The ability of a PAR4 antagonist (Example 13) compound to inhibit platelet aggregation induced by alpha-thrombin was tested using human washed platelets. Example 13 was pre-incubated with washed platelets for 20 min. Aggregation was initiated by addition of 1.5 nM alpha-thrombin (Haematologic Technologies, Essex Junction, Vt.) to 300 μl of washed platelets at stirring speed of 1000 rpm. […] IC50 was calculated using vehicle control as 0% inhibition.

human PRP = test: Tissue factor-induced platelet aggregation assay; assay type: cell-based; details: FIGS. 1 and 2
Text: Example E is a tissue factor-induced platelet aggregation assay. The conditions in this assay mimic the physiological events during thrombus formation. In this assay, platelet aggregation in human PRP was initiated by the addition of tissue factor and CaCl2. Tissue factor, the initiator of the extrinsic coagulation cascade, is highly elevated in human atherosclerotic plaque. Exposure of blood to tissue factor at the atherosclerotic site triggers a robust generation of thrombin and induces the formation of obstructive thrombi.
The ability of PAR1 or PAR4 antagonists to inhibit platelet aggregation induced by endogenous thrombin can be tested in a tissue factor driven aggregation assay. Aggregation is initiated by addition of CaCl2 and recombinant human tissue factor, which results in the generation of thrombin through activation of the coagulation pathway in the plasma. Anticoagulant agents such as corn trypsin inhibitor (Haematologic Technologies, Essex Junction, Vt.) at 50 μg/ml and PEFABLOC® FG (Centerchem, Norwalk, Conn.) are also added to the sample to prevent fibrin clot formation during the time of the study. Platelet aggregation is monitored using standard instrumentation including optical aggregometer or impedance aggregometer.

[3] = ACS patients; cited from earlier work
PAR1 = PAR1 (Homo sapiens (Human), UniProt P25116); test: FLIPR PAR1 counter screen (SFFLRR-induced calcium mobilization) in HEK293 cells; assay type: cell-based; details: Example A, routinely tested; read-out: EC50 of agonist peptide in the assay (PAR1 counter screen)
Chain of PAR1 (P25116 22-425): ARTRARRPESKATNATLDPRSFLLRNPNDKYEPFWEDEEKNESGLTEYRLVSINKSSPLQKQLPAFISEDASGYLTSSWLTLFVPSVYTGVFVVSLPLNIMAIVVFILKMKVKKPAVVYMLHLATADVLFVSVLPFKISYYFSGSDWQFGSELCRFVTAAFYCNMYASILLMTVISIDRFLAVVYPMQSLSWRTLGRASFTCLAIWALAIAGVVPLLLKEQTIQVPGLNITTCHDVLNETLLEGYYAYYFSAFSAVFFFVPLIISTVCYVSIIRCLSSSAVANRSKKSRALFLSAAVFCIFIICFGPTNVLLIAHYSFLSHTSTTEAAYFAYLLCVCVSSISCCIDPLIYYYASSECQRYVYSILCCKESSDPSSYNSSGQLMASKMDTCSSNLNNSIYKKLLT

T1 sequence (Q96RI0 18-385): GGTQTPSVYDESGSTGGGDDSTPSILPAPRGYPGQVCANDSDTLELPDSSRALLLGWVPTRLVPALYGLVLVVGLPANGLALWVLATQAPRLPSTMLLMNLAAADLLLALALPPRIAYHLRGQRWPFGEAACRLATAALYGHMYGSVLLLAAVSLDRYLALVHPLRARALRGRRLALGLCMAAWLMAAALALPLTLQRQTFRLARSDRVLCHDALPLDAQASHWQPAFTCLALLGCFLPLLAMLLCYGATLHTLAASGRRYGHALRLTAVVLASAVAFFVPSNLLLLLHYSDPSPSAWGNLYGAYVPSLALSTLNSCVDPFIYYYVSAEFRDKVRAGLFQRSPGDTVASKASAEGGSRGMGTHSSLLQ

Compound | IC50 (PAR4 [1]) [nM] | IC50 (PAR4 [2]) [nM] | further results
COc1cc(OCc2cccc(-c3ccc(C#N)nc3)c2)c2cc(-c3cn4nc(OC)sc4n3)oc2c1 [Example 13] | 1.74 | 4.91 | IC50 (human washed platelets): 11 nM; inhibition of tissue factor-induced platelet aggregation (human PRP): effective inhibition
COc1cc(OCc2ccnc(-c3ccnc(F)c3)n2)c2cc(-c3cn4nc(OC)sc4n3)oc2c1 [Example 97, 6-(4-((2-(2-Fluoropyridin-4-yl)pyrimidin-4-yl)methoxy)-6-methoxybenzofuran-2-yl)-2-methoxyimidazo[2,1-b][1,3,4]thiadiazole] | 0.36 | 2.97 | –
CCOC(=O)N[C@@H]1CC[C@@H]2[C@@H](C1)C[C@H]1C(=O)O[C@H](C)[C@H]1[C@H]2/C=C/c1ccc(-c2cccc(F)c2)cn1 [vorapaxar] | – | – | reduction of cardiovascular events [3]: did not significantly reduce; risk of major bleeding [3]: significantly increased
SFFLRR [SFFLRR] | – | – | EC50 (PAR1): 600 nM
trans-cinnamoyl-Phe(4-F)-Phe(4-guanidino)-Leu-Arg-Arg-NH2 [reference compound] | – | – | inhibition of tissue factor-induced platelet aggregation (human PRP): effective inhibition

The next lines start with results.

IC50 (PAR4 [1]) [nM] | IC50 (PAR4 [2]) [nM] | Compound | further results
0.29 | 1.67 | COc1cc(OCc2ccnc(-c3ccc(C(=O)N(C)C)cc3)n2)c2cc(-c3cn4nc(OC)sc4n3)oc2c1 [Example 98] | –
0.76 | 1.8 | COc1ccc(-c2nccc(COc3cc(OC)cc4oc(-c5cn6nc(OC)sc6n5)cc34)n2)cc1 [Example 100] | –
0.41 | 87.6 | COc1cc(OCc2cccc(C3(O)CCOCC3)n2)c2cc(-c3cn4nc([C@H](C)F)sc4n3)oc2c1 [Example 110, (S)-4-(6-(((2-(2-(1-Fluoroethyl)imidazo[2,1-b][1,3,4]thiadiazol-6-yl)-6-methoxybenzofuran-4-yl)oxy)methyl)pyridin-2-yl)tetrahydro-2H-pyran-4-ol] | –
